Patent publication US11708351B2 (Achillion Pharmaceuticals, Inc., priority 2017, dated 2023)

What follows are compounds tested against Human Factor D (Homo sapiens (Human), UniProt P00746) (assay: Human Factor D Assay). Settings: Factor D inhibition, assay of Example 10; read-out: IC50 (Stars).
Type: biochemical
Procedure: Human Factor D (purified from human serum, Complement Technology, Inc.) at 80 nM final concentration is incubated with test compound at various concentrations for 5 min at room temperature in 50 mM Tris, 1M NaCl, pH 7.5. A synthetic substrate Z-L-Lys-SBzl and DTNB (Ellman's reagent) are added to final concentrations of 100 μM each. Absorbance at 405 nm (A405) is recorded at 30 second intervals for 30 min using a microplate spectrophotometer. IC50 values are calculated by nonlinear regression of complement Factor D reaction rates as a function of test compound concentration.

Sequence of Human Factor D (P00746 26-253): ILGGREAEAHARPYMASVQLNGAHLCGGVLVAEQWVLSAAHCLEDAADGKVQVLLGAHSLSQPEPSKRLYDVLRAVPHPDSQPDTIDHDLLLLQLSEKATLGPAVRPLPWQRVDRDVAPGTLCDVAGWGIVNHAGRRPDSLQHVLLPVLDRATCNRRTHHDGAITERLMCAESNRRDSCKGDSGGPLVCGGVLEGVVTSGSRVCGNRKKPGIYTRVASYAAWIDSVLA

| Compound | IC50 [nM] |
| --- | --- |
| CC(=O)c1nn(CC(=O)N2[C@H](C(=O)Nc3nc(Br)ccc3C)C[C@@]3(C)C[C@@H]23)c2cnc(-c3cnc(C)cn3)cc12 [Compound 303] | < 1000 |
| CC(=O)c1nn(CC(=O)N2[C@H](C(=O)Nc3nc(Br)ccc3COCCF)C[C@@]3(C)C[C@@H]23)c2ccc(-c3cnc(C)nc3)cc12 [Compound 301, (1R,3S,5R)-2-(2-(3-acetyl-5-(2-methylpyrimidin-5-yl)-1H-indazol-1-yl)acetyl)-N-(6-bromo-3-((2-fluoro-ethoxy)methyl)pyridin-2-yl)-5-methyl-2-azabicyclo[3.1.0]hexane-3-carboxamide] | < 1000 |
| CC(=O)c1nn(CC(=O)N2[C@H](C(=O)Nc3nc(Br)c(F)cc3C)C[C@@]3(CC#N)C[C@@H]23)c2cnc(-c3cnc(C)nc3)cc12 [Compound 249, (1R,3S,5R)-2-(2-(3-acetyl-5-(2-methylpyrimidin-5-yl)-1H-pyrazolo[3,4-c]pyridin-1-yl)acetyl)-N-(6-bromo-5-fluoro-3-methylpyridin-2-yl)-5-(cyanomethyl)-2-azabicyclo[3.1.0]hexane-3-carboxamide] | < 1000 |
| CC(=O)c1nn(CC(=O)N(C(=O)[C@@H]2C[C@@]3(C)C[C@H]3N2)c2cccc(Br)n2)c2cnc(-c3cnc(C)nc3)cc12 [Compound 334, (1R,3S,5R)-2-(2-(3-acetyl-5-(2-methylpyrimidin-5-yl)-1H-pyrazolo[3,4-c]pyridin-1-yl)acetyl)-N-(6-bromopyridin-2-yl)-5-methyl-2-azabicyclo[3.1.0]hexane-3-carboxamide] | < 1000 |
| CC(=O)c1nn(CC(=O)N2[C@H](C(=O)Nc3nc(Br)c(F)cc3C)C[C@@]3(CN(CCO)CCO)C[C@@H]23)c2cnc(-c3cnc(C)nc3)cc12 [Compound 248, (1R,3S,5R)-2-(2-(3-acetyl-5-(2-methylpyrimidin-5-yl)-1H-pyrazolo[3,4-c]pyridin-1-yl)acetyl)-5-((bis(2-hydroxy-ethyl)amino)methyl)-N-(6-bromo-5-fluoro-3-methylpyridin-2-yl)-2-azabicyclo[3.1.0]hexane-3-carboxamide] | < 1000 |
| COCc1ncc(-c2ccc3c(c2)c(C(C)=O)nn3CC(=O)N2[C@H](C(=O)Nc3nc(Br)ccc3C)C[C@@]3(C)C[C@@H]23)cn1 [Compound 278, (1R,3S,5R)-2-(2-(3-acetyl-5-(2-(methoxymethyl)py-rimidin-5-yl)-1H-indazol-1-yl)acetyl)-N-(6-bromo-3-methylpyridin-2-yl)-5-methyl-2-azabicyclo[3.1.0]hexane-3-carboxamide] | < 1000 |

Same assay, conditions: Table 6; Factor D 80 nM, substrate Z-L-Lys-SBzl; read-out: IC50

| Compound | IC50 [nM] |
| --- | --- |
| (3S)-5-(3-Azabicyclo[3.1.1]heptan-3-ylmethyl)-2-(2-(3-acetyl-5-(2-methylpyrimidin-5-yl)-1H-indazol-1-yl)acetyl)-N-(6-bromo-3-methylpyridin-2-yl)-2-azabicyclo[3.1.0]hexane-3-carboxamide [Compound 13] | < 1000 |
| CC(=O)c1nn(CC(=O)N2[C@H](C(=O)O)C[C@@]3(C)C[C@@H]23)c2c(C)cc(-c3cnc(C)nc3)cc12 [Compound 126, (1R,3S,5R)-2-(2-(3-acetyl-7-methyl-5-(2-methylpyrimidin-5-yl)-1H-indazol-1-yl)acetyl)-5-methyl-2-azabicyclo[3.1.0] hexane-3-carboxylic acid] | > 10000 |
| CC(=O)c1c2cc(-c3cnc(C)nc3)cc(C(F)(F)F)c2nn1CC(=O)N1[C@H](C(=O)Nc2nc(Br)ccc2C)C[C@@]2(C)C[C@@H]12 [Compound 217, (1R,3S,5R)-2-(2-(3-acetyl-5-(2-methylpyrimidin-5-yl)-7-(trifluoromethyl)-2H-indazol-2-yl)acetyl)-N-(6-bromo-3-methylpyridin-2-yl)-5-methyl-2-azabicyclo[3.1.0] hexane-3-carboxamide] | > 10000 |
| CC(=O)c1nn(CC(=O)N2C[C@H]3C[C@H]3[C@H]2C(=O)N2C[C@H]3C[C@H]3[C@H]2C(=O)Nc2nc(Br)ccc2C)c2c(C)cc(-c3cnc(C)nc3)cc12 [Compound 92, (1R,2S,5S)-3-((1R,2S,5S)-3-(2-(3-acetyl-7-methyl-5-(2-methylpyrimidin-5-yl)-1H-indazol-1-yl)acetyl)-3-azabicyclo[3.1.0]hexane-2-carbonyl)-N-(6-bromo-3-methylpyridin-2-yl)-3-azabicyclo[3.1.0] hexane-2-carboxamide] | 1000 to 10000 |
| CC(=O)c1nn(CC(=O)N2[C@H](C(=O)Nc3nc(Br)ccc3C)C[C@@]3(C)C[C@@H]23)c2c(CN(C)C)cc(-c3cnc(C)nc3)cc12 [Compound 167, (1R,3S,5R)-2-(2-(3-Acetyl-7-((dimethylamino)methyl)-5-(2-methylpyrimidin-5-yl)-1H-indazol-1-yl)acetyl)-N-(6-bromo-3-methylpyridin-2-yl)-5-methyl-2-azabicyclo[3.1.0]hexane-3-carboxamide] | < 1000 |

Same assay, conditions: Table 7; Factor D inhibition, assay of Example 10; read-out: IC50 (Stars)

| Compound | IC50 [nM] |
| --- | --- |
| CC(=O)c1nn(CC(=O)N2[C@H](C(=O)Nc3cc(-c4ccccc4O)cc(Br)n3)C[C@@]3(C)C[C@@H]23)c2ccc(-c3cnc(C)nc3)cc12 [Compound 556, (1R,3S,5R)-2-(2-(3-acetyl-5-(2-methylpyrimidin-5-yl)-1H-indazol-1-yl)acetyl)-N-(6-bromo-4-(2-hydroxyphenyl)pyridin-2-yl)-5-methyl-2-azabicyclo[3.1.0]hexane-3-carboxamide] | < 1000 |

Same assay, conditions: Table 8; Factor D 80 nM, substrate Z-L-Lys-SBzl; read-out: IC50

| Compound | IC50 [nM] |
| --- | --- |
| CC(=O)c1nn(CC(=O)N2[C@H](C(=O)Nc3nc(Br)ccc3C)C[C@@]3(CNC(=O)COCCOCCNC(=O)COCCOCCNC(=O)CC[C@H](NC(=O)CCCCCCCCCCCCCCCCC(=O)O)C(=O)O)C[C@@H]23)c2ccc(-c3cnc(C)nc3)cc12 [Compound 379, (S)-1-((1R,3S,5R)-2-(2-(3-acetyl-5-(2-methylpyrimidin-5-yl)-1H-indazol-1-yl)acetyl)-3-((6-bromo-3-methylpyridin-2-yl)carbamoyl)-2-azabicyclo[3.1.0]hexan-5-yl)-24-carboxy-3,12,21,26-tetraoxo-5,8,14,17-tetraoxa-2,11,20,25-tetraazatritetracontan-43-oic acid] | < 1000 |
| COC(=O)CCCCCCCCCCCCCCCCC(=O)N[C@@H](CCC(=O)NCCOCCOCC(=O)NCCOCCOCC(=O)NCc1ncc(-c2cc(C)c3c(c2)c(C(C)=O)nn3CC(=O)N2[C@H](C(=O)Nc3nc(Br)ccc3C)C[C@@]3(C)C[C@@H]23)cn1)C(=O)OC [Compound 403, (S)-methyl 1-(5-(3-acetyl-1-(2-((1R,3S,5R)-3-((6-bromo-3-methylpyridin-2-yl)carbamoyl)-5-methyl-2-azabicyclo[3.1.0]hexan-2-yl)-2-oxoethyl)-7-methyl-1H-indazol-5-yl)pyrimidin-2-yl)-24-(methoxycarbonyl)-3,12,21,26-tetraoxo-5,8,14,17-tetraoxa-2,11,20,25-tetraazatritetracontan-43-oate] | < 1000 |
